In patent US20020156269A1, “Crystals of diuridine tetraphosphate or salt thereof, process for producing the crystals, and process for producing the compounds” (YAMASA CORPORATION, priority 1998, published 2002):

How the values were obtained:
[1] = Hygroscopicity: standing for nine days at controlled temperature and relative humidity; format: physicochemical; conditions: for decomposition or change in weight on standing: initial water content approximately 14%
Method: U2P4.4Na crystals (octahydrate) having a water content of approximately 14% were allowed to stand for nine days under the following conditions: a) 25° C. and a relative humidity of 57%; b) 25° C. and a relative humidity of 75%; and c) 40° C. and a relative humidity of 75%. […] The crystals have proven to be stable and to have no hygroscopicity. U2P4.4Na crystals (tetrahydrate) having a water content of approximately 8% were allowed to stand for nine days under conditions of 40° C. and a relative humidity of 75%. In this case, the water content increased to 14-15%.

[2] = Stability: acceleration test in sealed bottles at 60° C. for 13 days; format: physicochemical; conditions: sealed bottle, 13 days at 60° C.
Method: U2P4.4Na crystals (octahydrate) and a lyophilized product were placed in respective bottles, which were then sealed and allowed to stand for 13 days at 60° C. (acceleration test).

| Compound | water content after standing ([1]; nine days, 40° C. and a relative humidity of 75%, initial water content approximately 8% (tetrahydrate)) | state of the product on storage ([1]; 40° C. and a relative humidity of 75%, on the seventh day of storage) | change of water content on standing ([1]; nine days, 40° C. and a relative humidity of 75%, initial water content approximately 1%) | decomposition [2] | weight loss of U2P4.4Na [2] | decomposition or change in weight on standing ([1]; nine days, 25° C. and a relative humidity of 57%) | decomposition or change in weight on standing ([1]; nine days, 25° C. and a relative humidity of 75%) | decomposition or change in weight on standing ([1]; nine days, 40° C. and a relative humidity of 75%) |
| --- | --- | --- | --- | --- | --- | --- | --- | --- |
| O=c1ccn([C@@H]2O[C@H](COP(=O)([O-])OP(=O)([O-])OP(=O)([O-])OP(=O)([O-])OC[C@H]3O[C@@H](n4ccc(=O)[nH]c4=O)C(O)C3O)C(O)C2O)c(=O)[nH]1.[Na+].[Na+].[Na+].[Na+] (stereo partly drawn) [U2P4.4Na crystals (tetrahydrate), P^1,P^4-di(uridine 5′-)tetraphosphate tetrasodium salt] | 14-15% | – | – | – | – | – | – | – |
| O=c1ccn([C@@H]2O[C@H](COP(=O)([O-])OP(=O)([O-])OP(=O)([O-])OP(=O)([O-])OC[C@H]3O[C@@H](n4ccc(=O)[nH]c4=O)C(O)C3O)C(O)C2O)c(=O)[nH]1.[Na+].[Na+].[Na+].[Na+] (stereo partly drawn) [lyophilized product, P^1,P^4-di(uridine 5′-)tetraphosphate tetrasodium salt, reference compound] | – | mud-like state due to deliquescence | increased gradually | partial decomposition | approximately 1.4% | – | – | – |
| O=c1ccn([C@@H]2O[C@H](COP(=O)([O-])OP(=O)([O-])OP(=O)([O-])OP(=O)([O-])OC[C@H]3O[C@@H](n4ccc(=O)[nH]c4=O)C(O)C3O)C(O)C2O)c(=O)[nH]1.[Na+].[Na+].[Na+].[Na+] (stereo partly drawn) [U2P4.4Na crystals (octahydrate), P^1,P^4-di(uridine 5′-)tetraphosphate tetrasodium salt] | – | – | – | No decomposition | – | No decomposition or change in weight | No decomposition or change in weight | No decomposition or change in weight |
